Target: T1, GIVA cPLA2 (cPLA2α) (Homo sapiens, UniProt P47712)
T1 construct: gene PLA2G4A
T1 sequence (P47712 1-749): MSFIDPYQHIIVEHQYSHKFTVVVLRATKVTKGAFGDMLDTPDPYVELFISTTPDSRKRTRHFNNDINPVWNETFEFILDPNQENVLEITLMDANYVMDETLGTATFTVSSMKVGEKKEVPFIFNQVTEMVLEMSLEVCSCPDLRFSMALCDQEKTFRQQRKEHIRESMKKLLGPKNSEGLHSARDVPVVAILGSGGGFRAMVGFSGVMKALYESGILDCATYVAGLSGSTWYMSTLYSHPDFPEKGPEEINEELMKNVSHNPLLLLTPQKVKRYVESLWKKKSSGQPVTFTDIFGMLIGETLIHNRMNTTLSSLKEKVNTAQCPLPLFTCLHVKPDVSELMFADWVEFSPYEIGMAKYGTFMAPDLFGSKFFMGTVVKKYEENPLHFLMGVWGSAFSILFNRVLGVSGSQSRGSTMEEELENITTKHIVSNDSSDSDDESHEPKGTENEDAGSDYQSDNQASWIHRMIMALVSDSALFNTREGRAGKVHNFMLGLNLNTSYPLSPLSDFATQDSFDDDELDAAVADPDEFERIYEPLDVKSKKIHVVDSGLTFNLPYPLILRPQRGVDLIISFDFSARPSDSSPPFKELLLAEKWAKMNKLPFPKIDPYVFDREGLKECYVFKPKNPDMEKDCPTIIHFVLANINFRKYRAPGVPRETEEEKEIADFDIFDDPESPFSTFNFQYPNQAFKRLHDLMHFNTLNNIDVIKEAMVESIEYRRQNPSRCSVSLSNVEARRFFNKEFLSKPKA
Assay: in vitro mixed micelle modified Dole assay ([…]-PAPC)
Type: biochemical

In vitro enzyme activity / GIVA cPLA2 / XI(50)	SMILES
0.0072 ± 0.0007 mole fraction (XI(50))	CC/C=C\C/C=C\C/C=C\C/C=C\CC/C=C/CSCC(=O)C(F)(F)F [AVX001, (6E,10Z,13Z,16Z,19Z)-1,1,1-trifluoro-4-thiadocosa-6,10,13,16,19-pentaen-2-one]
0.0057 ± 0.001 mole fraction (XI(50))	CC/C=C\C/C=C\C/C=C\C/C=C\C/C=C\CCSCC(=O)C(F)(F)F [AVX002, 1,1,1-trifluoro-3-(((3Z,6Z,9Z,12Z,15Z)-octadeca-3,6,9,12,15-pentaen-1-yl)thio)propan-2-one]
